Here are results for three compounds from publication PMC6113708, “Ginsenoside Rb1 and Rd Remarkably Inhibited the Hepatic Uptake of Ophiopogonin D in Shenmai Injection Mediated by OATPs/oatps” (Frontiers in Pharmacology, 2018).

The target in data set [1] is T1, OATP1B3 (Homo sapiens, UniProt Q9NPD5).
T1 construct: gene SLCO1B3; stably expressed in HEK293T cells (Shanghai Genechem), sodium butyrate induced
T1 sequence (Q9NPD5 1-702): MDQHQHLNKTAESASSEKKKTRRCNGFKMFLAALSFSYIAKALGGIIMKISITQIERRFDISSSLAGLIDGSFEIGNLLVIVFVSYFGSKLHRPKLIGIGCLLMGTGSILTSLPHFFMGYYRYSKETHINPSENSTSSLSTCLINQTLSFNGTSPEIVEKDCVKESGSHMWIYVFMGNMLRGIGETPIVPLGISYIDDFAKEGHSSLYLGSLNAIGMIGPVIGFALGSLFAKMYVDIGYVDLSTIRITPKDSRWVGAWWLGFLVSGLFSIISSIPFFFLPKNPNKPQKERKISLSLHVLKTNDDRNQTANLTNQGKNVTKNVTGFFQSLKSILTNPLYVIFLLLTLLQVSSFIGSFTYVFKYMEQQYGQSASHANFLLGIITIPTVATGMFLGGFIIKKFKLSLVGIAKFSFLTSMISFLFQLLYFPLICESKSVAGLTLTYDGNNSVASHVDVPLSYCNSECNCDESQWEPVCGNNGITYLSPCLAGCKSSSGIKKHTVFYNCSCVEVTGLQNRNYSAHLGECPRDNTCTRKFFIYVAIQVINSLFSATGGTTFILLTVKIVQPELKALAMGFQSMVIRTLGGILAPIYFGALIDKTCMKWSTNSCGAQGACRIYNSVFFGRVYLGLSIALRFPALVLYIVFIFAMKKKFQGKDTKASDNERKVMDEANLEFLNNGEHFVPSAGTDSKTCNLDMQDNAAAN
Kind of data set: concentration-dependent uptake in HEK293T cells, LC-MS. The data set is classed as cell-based. The source says:
concentration-dependent uptake in HEK293T cells, LC-MS on OATP1B3 | uptake process of OPD for OATP1B3 followed a typical Michaelis-Menten equation

Data set [2] has as its target T1, OATP1B3. Kind of data set: inhibition of ophiopogonin D uptake in HEK293T cells, LC-MS. The data set is classed as cell-based. The source says: inhibition of ophiopogonin D uptake in HEK293T cells, LC-MS on OATP1B3

What is called Km is the concentration of substrate that gives half-maximal velocity. What is called IC50 is the concentration at which inhibition is half-maximal. Read a high IC50 as weaker potency in that assay.

Turning to `C[C@@H]1CC[C@@]2(OC1)O[C@H]1C[C@H]3[C@@H]4CC=C5C[C@@H](O)C[C@@H](O[C@@H]6O[C@H](C)[C@H](O)[C@H](O[C@@H]7OC[C@@H](O)[C@H](O)[C@H]7O)[C@H]6O[C@@H]6O[C@@H](C)[C@H](O)[C@@H](O)[C@H]6O)[C@]5(C)[C@H]4CC[C@]3(C)[C@H]1[C@@H]2C` [Ophiopogonin D], on OATP1B3 [1], the Km is 11.3 µM.

Turning to `CC(C)=CCC[C@](C)(O[C@@H]1O[C@H](CO[C@@H]2O[C@H](CO)[C@@H](O)[C@H](O)[C@H]2O)[C@@H](O)[C@H](O)[C@H]1O)[C@H]1CC[C@]2(C)[C@@H]1[C@H](O)C[C@@H]1[C@@]3(C)CC[C@H](O[C@@H]4O[C@H](CO)[C@@H](O)[C@H](O)[C@H]4O[C@@H]4O[C@H](CO)[C@@H](O)[C@H](O)[C@H]4O)C(C)(C)[C@@H]3CC[C@]12C` [ginsenoside Rb1], the midpoint of inhibition on OATP1B3 [2], the IC50, lay at 570 nM.

In the case of `CC(C)=CCC[C@](C)(O[C@@H]1O[C@H](CO)[C@@H](O)[C@H](O)[C@H]1O)[C@H]1CC[C@]2(C)[C@@H]1[C@H](O)C[C@@H]1[C@@]3(C)CC[C@H](O[C@@H]4O[C@H](CO)[C@@H](O)[C@H](O)[C@H]4O[C@@H]4O[C@H](CO)[C@@H](O)[C@H](O)[C@H]4O)C(C)(C)[C@@H]3CC[C@]12C` [ginsenoside Rd], the IC50 against OATP1B3 [2] worked out at 320 nM.
